Here are results for 16 compounds from ChEMBL document CHEMBL3091332, “Recycling antimalarial leads for cancer: Antiproliferative properties of N-cinnamoyl chloroquine analogues” (Bioorg Med Chem Lett, 2013).

For one data set, the system named is Caco-2. Description: Antiproliferative activity against human Caco2 cells after 2 days by sulforhodamine B assay. The data set is classed as functional. The settings on record: Caco-2, 48 h. (In general: The SRB assay estimates cell density from bound dye.)
A short description of data set [1]: Antiproliferative activity against human MKN28 cells after 2 days by sulforhodamine B assay. It counts as functional. To be noted: MKN-28, 48 h.
In the next data set the test system is MCF7. Briefly: Antiproliferative activity against human MCF7 cells after 2 days by sulforhodamine B assay. The data set is classed as functional. The settings on record: MCF7, 48 h.
Data set [2] is described as follows: Antiproliferative activity against human HFF1 cells after 2 days by sulforhodamine B assay. The data set is classed as cell-based, HFF-1.
For data set [3], the target named is Receptor tyrosine-protein kinase erbB-2 (Homo sapiens, UniProt P04626). Description: Inhibition of human HER2.

By GI50 is commonly meant the concentration giving 50% growth inhibition. A lower GI50 goes with greater sensitivity of the cells. In general, IC50 refers to the concentration at which inhibition is half-maximal. A lower IC50 goes with inhibition by little substance.

Sequence of Receptor tyrosine-protein kinase erbB-2 (P04626 whole entry): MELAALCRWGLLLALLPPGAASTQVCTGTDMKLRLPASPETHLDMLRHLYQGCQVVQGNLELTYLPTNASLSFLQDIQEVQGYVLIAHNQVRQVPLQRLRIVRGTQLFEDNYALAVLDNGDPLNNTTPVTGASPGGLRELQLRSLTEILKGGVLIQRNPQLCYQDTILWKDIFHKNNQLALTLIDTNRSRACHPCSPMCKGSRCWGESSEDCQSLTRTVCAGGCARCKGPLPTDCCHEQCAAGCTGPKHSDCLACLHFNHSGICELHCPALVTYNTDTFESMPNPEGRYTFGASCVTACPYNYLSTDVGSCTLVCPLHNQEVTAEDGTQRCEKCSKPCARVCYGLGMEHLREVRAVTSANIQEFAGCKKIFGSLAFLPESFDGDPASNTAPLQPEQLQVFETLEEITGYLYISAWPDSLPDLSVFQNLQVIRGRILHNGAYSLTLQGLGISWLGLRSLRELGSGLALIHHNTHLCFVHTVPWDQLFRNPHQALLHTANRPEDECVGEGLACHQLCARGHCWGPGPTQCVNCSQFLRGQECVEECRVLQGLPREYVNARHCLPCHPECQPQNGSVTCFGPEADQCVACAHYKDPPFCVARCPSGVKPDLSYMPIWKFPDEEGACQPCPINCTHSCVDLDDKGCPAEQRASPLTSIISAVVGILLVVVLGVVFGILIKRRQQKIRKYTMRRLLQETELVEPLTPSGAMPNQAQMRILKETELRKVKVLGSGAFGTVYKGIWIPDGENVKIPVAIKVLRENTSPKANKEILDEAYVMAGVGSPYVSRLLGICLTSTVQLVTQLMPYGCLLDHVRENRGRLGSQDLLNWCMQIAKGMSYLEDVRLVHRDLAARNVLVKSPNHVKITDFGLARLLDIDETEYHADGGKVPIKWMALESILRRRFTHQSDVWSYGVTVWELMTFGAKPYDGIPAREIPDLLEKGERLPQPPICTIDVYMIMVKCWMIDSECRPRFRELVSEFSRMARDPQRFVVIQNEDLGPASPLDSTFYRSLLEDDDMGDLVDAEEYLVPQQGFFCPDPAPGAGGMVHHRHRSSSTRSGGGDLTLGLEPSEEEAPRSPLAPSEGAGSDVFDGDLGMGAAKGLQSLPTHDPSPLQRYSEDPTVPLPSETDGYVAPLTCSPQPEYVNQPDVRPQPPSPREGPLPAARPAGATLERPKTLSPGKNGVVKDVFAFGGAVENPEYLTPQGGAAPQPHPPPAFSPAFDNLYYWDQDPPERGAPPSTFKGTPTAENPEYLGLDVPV

As to `CC(C)c1ccc(/C=C/C(=O)NCCCCCNc2ccnc3cc(Cl)ccc23)cc1`, the GI50 with Caco-2 was determined as 9.16 µM; in data set [1], 14 µM; in the data set with MCF7 it was 20.1 µM. In addition, in data set [2], the GI50 at 48 h was > 100 µM.
The matching figures for `O=C(/C=C/c1ccc(F)cc1)NCCCNc1ccnc2cc(Cl)ccc12`: 44.1 µM, 34.7 µM, 5.24 µM and 44.8 µM.
The corresponding values for `COc1ccc(/C=C/C(=O)OCCCCNc2ccnc3cc(Cl)ccc23)cc1` are 17.3 µM, 6.6 µM, 5.08 µM and 75.2 µM.
The corresponding values for `CC(C)c1ccc(/C=C/C(=O)NCCCCNc2ccnc3ccccc23)cc1` are 6.75 µM, 5.55 µM, 5.24 µM and 39.1 µM.
Consider `COc1ccc(/C=C/C(=O)NCCCCNc2ccncc2)cc1`, for which the values for the GI50 (in the data set with Caco-2; in data set [1]; in the data set on MCF7) were > 100 µM, 84.5 µM and 77.1 µM, respectively. The GI50 at 48 h in data set [2] was > 100 µM.
For `CC(C)c1ccc(/C=C/C(=O)NCCCCN2CCOCC2)cc1`, the GI50 in the data set with Caco-2 came to 29.6 µM; in data set [1], 72.5 µM; in the data set with MCF7, 32.7 µM. The GI50 at 48 h in data set [2] is > 100 µM.
Take `O=C(/C=C/c1ccccc1)NCCCCNc1ccnc2cc(Cl)ccc12`: the GI50 in the data set on Caco-2 amounted to 24.1 µM; in data set [1], 16.2 µM; in the data set on MCF7, 14.8 µM. In addition, the GI50 at 48 h in data set [2] is > 100 µM.
The matching figures for `CC(C)c1ccc(/C=C/C(=O)NCCCCNc2ccnc3cc(Cl)ccc23)cc1`: 11.9 µM, 22.3 µM, 8.09 µM and > 100 µM.
The matching figures for `COc1ccc(/C=C/C(=O)NCCCCNc2ccnc3cc(Cl)ccc23)cc1`: 30.7 µM, 16.9 µM, 25.2 µM and > 100 µM.
As for `O=C(/C=C/c1cccc(F)c1)NCCCCNc1ccnc2cc(Cl)ccc12`, the results for the GI50 (in the data set with Caco-2; in data set [1]; with MCF7) were 25.4 µM, 15.3 µM and 14.8 µM, respectively. Also, in data set [2], the concentration for 50% growth inhibition (GI50) at 48 h was > 100 µM.
In the case of `O=C(/C=C/c1ccc(F)cc1)NCCCCNc1ccnc2cc(Cl)ccc12`, the GI50 in the data set on Caco-2 was 15 µM; in data set [1], 11.8 µM; in the data set on MCF7, 12.5 µM. The GI50 at 48 h in data set [2] was > 100 µM.
For `O=C(/C=C/c1ccccc1[N+](=O)[O-])NCCCCNc1ccnc2cc(Cl)ccc12`, the GI50 in the data set on Caco-2 worked out at 11.9 µM; in data set [1], 15.1 µM; in the data set with MCF7 it was 13.3 µM. Besides, the concentration for 50% growth inhibition (GI50) at 48 h in data set [2] is > 100 µM.
The corresponding values for `O=C(/C=C/c1cccc([N+](=O)[O-])c1)NCCCCNc1ccnc2cc(Cl)ccc12` are 19.3 µM, 16.2 µM, 59.3 µM and > 100 µM.
`CCOc1cc2ncc(C#N)c(Nc3ccc(OCc4ccccn4)cc3)c2cc1NC(=O)/C=C/CN(C)C` returned an IC50 in data set [3] of 0.059 µM.
On to `CCN(CC)CCCC(C)Nc1ccnc2cc(Cl)ccc12` (stereo unspecified) [CHLOROQUINE], for which the GI50 with Caco-2 is 38.7 µM; in data set [1], 44.4 µM; with MCF7, 64.3 µM. In addition, the GI50 at 48 h in data set [2] is > 100 µM.
On to `COc1cccc2c1C(=O)c1c(O)c3c(c(O)c1C2=O)C[C@@](O)(C(=O)CO)C[C@@H]3O[C@H]1C[C@H](N)[C@H](O)[C@H](C)O1` [DOXORUBICIN], for which the GI50 in the data set with Caco-2 was determined as 0.32 µM; in data set [1] it was 0.24 µM; with MCF7 it was 0.31 µM. Moreover, in data set [2], the GI50 at 48 h is > 400 µM.
